# From patent US20230120044A1, “AGROCHEMICAL ADJUVANTS” (Croda International Plc, priority 2020, published 2023)
# Columns and labels:
# B. cinerea = assay: Adjuvancy with other fungicides for B. cinerea; assay type: cell-based, Botrytis cinerea
# Protocol: Botrytis cinerea (ATCC 90479) was cultured on potato dextrose agar (PDA) for 7 days with diurnal UV cycles (12 h UV light and 12 h dark). Spores were harvested in a buffered, sterile saline solution (0.9% saline water with 1% Tween 80) and counted using a haemocytometer. The spore suspension was adjusted to a final concentration of 8.5×10^6 spores/mL to create a standardised inoculum. To prepare hyphal fragments for adjuvant testing, 8.5×10^4 spores were used to inoculate 10 mL of potato dextrose broth in a 150×25 mm tube. The tube was incubated at 220 RPM, 22° C. for 48 hours. To create hyphal fragments from the culture, the culture was transferred to a 50 mL plastic conical tube containing approximately 20 sterile 5 mm diameter glass beads and vortexed for 5 min. After vortexing the tube was allowed to stand for 5 min to allow large mycelial clumps to settle and then the top layer containing hyphal fragments was removed and used as inocula for growth inhibition assays. Fungicides and adjuvants were dissolved in methanol and added to molten PDA (˜50° C.) and then the agar was distributed in the wells of 12 well multiwell plates (1 mL/well). The plates were cooled to room temperature and 10 μL of hyphal inoculum was added to the centre of each well. The plates were incubated at 22° C. for 48 hours and then the colony diameter was measured using a digital caliper. The biological growth control consisted of hyphae and vehicle (0.07% methanol), the negative control was media and vehicle (0.07% methanol). To expand the functional characterisation of the lamellicolic anhydride adjuvant (Ia) was tested in combination with seven fungicides belonging to six different fungicide groups as classified by the Fungicide Resistance Action Committee (FRAC Code List 2018). Numbers indicate fold change improvement in fungal growth inhibition relative to the fungal test organisms treated with fungicide and adjuvant vehicle alone. n.t. indicates not tested.
# Fusarium solani = assay: Adjuvancy with other fungicides for other fungus, FT1; assay type: cell-based; settings: Ia 4 μg/mL + dimethomorph 12.8 μg/mL
# Protocol: (§1) To evaluate the biological spectrum of activity, lamellicolic anhydride adjuvant (Ta) was tested in combination with seven fungicides against six different fungal test organisms belonging to five different genera.
# (§2) Prior to evaluating the adjuvant effect of (Ia), the minimum inhibitory concentration (MIC) for each fungicide against each test organism was determined by measuring growth on agar plates containing decreasing concentrations of fungicide.
# (§3) Once the MIC was determined, adjuvant testing was performed with the concentration of (Ta) fixed at 4 μg/mL and each fungicide at a concentration which inhibited growth of the fungus by 10-20%.
# (§4) Fungal targets are: FT1 —Fusarium solani, FT2 —Fusarium oxysporum, FT3 —Alternaria infectorium, FT4 —Penicillium roqueforti, FT5 —Aspergillus flavus, FT6 —Cladosporium sp.
# (§5) The numbers indicate fold change improvement in fungal growth inhibition relative to the fungal test organisms treated with fungicide and adjuvant vehicle alone. A value of 1 would indicate no effect on fungicidal activity, whilst a value >1 indicates improved fungicidal activity. n.t. indicates not tested.
# Fusarium oxysporum = assay: Adjuvancy with other fungicides for other fungus, FT2; assay type: cell-based; settings: Ia 4 μg/mL + pyraclostrobin 0.01 μg/mL
# Protocol: as §1, §2, §3, §4, §5
# Alternaria infectorium = assay: Adjuvancy with other fungicides for other fungus, FT3; assay type: cell-based
# Protocol: as §1, §2, §3, §4, §5
# Penicillium roqueforti = assay: Adjuvancy with other fungicides for other fungus, FT4; assay type: cell-based
# Protocol: as §1, §2, §3, §4, §5
# Aspergillus flavus = assay: Adjuvancy with other fungicides for other fungus, FT5; assay type: cell-based
# Protocol: as §1, §2, §3, §4, §5
# Cladosporium sp. = assay: Adjuvancy with other fungicides for other fungus, FT6; assay type: cell-based; settings: Ia 4 μg/mL + pyrimethanil 0.006 μg/mL
# Protocol: as §1, §2, §3, §4, §5
# [1] = system: Botrytis cinerea (ATCC 90479); assay: Adjuvancy with pyraclostrobin, agar growth inhibition of hyphal inoculum; assay type: cell-based; settings: for Fold Change in Growth Inhibition: vs pyraclostrobin alone, 48 hours, 22° C.
# Protocol: Percent Inhibition—The percent inhibition will be understood to represent the amount the fungicide and/or adjuvant inhibits the visible growth of the microorganism after 48 hours incubation at 22° C. relative to vehicle treated controls. This is calculated using the following formula: […]
# Fold Change—The fold change is a measure of the adjuvant/fungicide combination in inhibiting a microorganism compared to the fungicide alone. This indicates how the adjuvant performs relative to the fungicide alone. This is calculated using the following formula: […]
# Botrytis cinerea (ATCC 90479) was cultured on potato dextrose agar (PDA) for 7 days with diurnal UV cycles (12 h UV light and 12 h dark). Spores were harvested in a buffered, sterile saline solution (0.9% saline water with 1% Tween 80) and counted using a haemocytometer. The spore suspension was adjusted to a final concentration of 8.5×10^6 spores/mL to create a standardised inoculum.
# To prepare hyphal fragments for adjuvant testing, 8.5×10^4 spores were used to inoculate 10 mL of potato dextrose broth in a 150×25 mm tube. The tube was incubated at 220 RPM, 22° C. for 48 hours. To create hyphal fragments from the culture, the culture was transferred to a 50 mL plastic conical tube containing approximately 20 sterile 5 mm diameter glass beads and vortexed for 5 min. After vortexing the tube was allowed to stand for 5 min to allow large mycelial clumps to settle and then the top layer containing hyphal fragments was removed and used as inocula for growth inhibition assays.
# Fungicides and adjuvants were dissolved in methanol and added to molten PDA (˜50° C.) and then the agar was distributed in the wells of 12 well multiwell plates (1 mL/well). The plates were cooled to room temperature and 10 μL of hyphal inoculum was added to the centre of each well. The plates were incubated at 22° C. for 48 hours and then the colony diameter was measured using a digital caliper. The biological growth control consisted of hyphae and vehicle (0.07% methanol), the negative control was media and vehicle (0.07% methanol).
# [2] = Ia 4 μg/mL + pyraclostrobin 0.001 μg/mL
# [3] = Ia 4 μg/mL + iprodione 0.0015 μg/mL
# [4] = Ia 4 μg/mL + mancozeb 0.2 μg/mL
smiles,measurement,setting,value
"Cc1cc(O)c2c3c(c(O)cc(O)c13)C(=O)OC2=O [Lam 261 (Ia), Lamellicolic anhydride]",Fold Change in Growth Inhibition,B. cinerea; Lam 261 (Ia) 1 μg/mL + benomyl 0.0015 μg/mL,16.45
same,Fold Change in Growth Inhibition,B. cinerea; Lam 261 (Ia) 1 μg/mL + captan 0.008 μg/mL,17.25
same,Fold Change in Growth Inhibition,B. cinerea; Lam 261 (Ia) 1 μg/mL + captan 0.04 μg/mL,27.32
same,Fold Change in Growth Inhibition,B. cinerea; Lam 261 (Ia) 1 μg/mL + dimethomorph 0.8 μg/mL,17.72
same,Fold Change in Growth Inhibition,B. cinerea; Lam 261 (Ia) 1 μg/mL + mancozeb 0.1 μg/mL,1.89
same,Fold Change in Growth Inhibition,B. cinerea; Lam 261 (Ia) 1 μg/mL + mancozeb 0.2 μg/mL,2.44
same,Fold Change in Growth Inhibition,B. cinerea; Lam 261 (Ia) 1 μg/mL + metalaxyl 0.8 μg/mL,31.72
same,Fold Change in Growth Inhibition,B. cinerea; Lam 261 (Ia) 1 μg/mL + metalaxyl 1.6 μg/mL,27.22
same,Fold Change in Growth Inhibition,B. cinerea; Lam 261 (Ia) 1 μg/mL + prothioconazole 1.0 μg/mL,5.53
same,Fold Change in Growth Inhibition,B. cinerea; Lam 261 (Ia) 1 μg/mL + tebuconazole 0.00018 μg/mL,15.13
same,Fold Change in Growth Inhibition,B. cinerea; Lam 261 (Ia) 1 μg/mL + tebuconazole 0.00075 μg/mL,9.37
same,Fold Change in Growth Inhibition,"B. cinerea; Lam 261 (Ia) 1 μg/mL, benomyl 0 μg/mL (adjuvant alone)",1.00
same,Fold Change in Growth Inhibition,"B. cinerea; Lam 261 (Ia) 1 μg/mL, captan 0 μg/mL (adjuvant alone)",1.00
same,Fold Change in Growth Inhibition,"B. cinerea; Lam 261 (Ia) 1 μg/mL, dimethomorph 0 μg/mL (adjuvant alone)",1.00
same,Fold Change in Growth Inhibition,"B. cinerea; Lam 261 (Ia) 1 μg/mL, mancozeb 0 μg/mL (adjuvant alone)",1.00
same,Fold Change in Growth Inhibition,"B. cinerea; Lam 261 (Ia) 1 μg/mL, metalaxyl 0 μg/mL (adjuvant alone)",1.00
same,Fold Change in Growth Inhibition,"B. cinerea; Lam 261 (Ia) 1 μg/mL, prothioconazole 0 μg/mL (adjuvant alone)",1.00
same,Fold Change in Growth Inhibition,"B. cinerea; Lam 261 (Ia) 1 μg/mL, tebuconazole 0 μg/mL (adjuvant alone)",1.00
same,Fold Change in Growth Inhibition,B. cinerea; Lam 261 (Ia) 2 μg/mL + benomyl 0.0015 μg/mL,20.43
same,Fold Change in Growth Inhibition,B. cinerea; Lam 261 (Ia) 2 μg/mL + captan 0.008 μg/mL,32.35
same,Fold Change in Growth Inhibition,B. cinerea; Lam 261 (Ia) 2 μg/mL + captan 0.04 μg/mL,30.95
same,Fold Change in Growth Inhibition,B. cinerea; Lam 261 (Ia) 2 μg/mL + dimethomorph 0.4 μg/mL,31.0
same,Fold Change in Growth Inhibition,B. cinerea; Lam 261 (Ia) 2 μg/mL + dimethomorph 0.8 μg/mL,16.06
same,Fold Change in Growth Inhibition,B. cinerea; Lam 261 (Ia) 2 μg/mL + mancozeb 0.1 μg/mL,3.06
same,Fold Change in Growth Inhibition,B. cinerea; Lam 261 (Ia) 2 μg/mL + mancozeb 0.2 μg/mL,2.83
same,Fold Change in Growth Inhibition,B. cinerea; Lam 261 (Ia) 2 μg/mL + metalaxyl 0.8 μg/mL,45.13
same,Fold Change in Growth Inhibition,B. cinerea; Lam 261 (Ia) 2 μg/mL + metalaxyl 1.6 μg/mL,32.46
same,Fold Change in Growth Inhibition,B. cinerea; Lam 261 (Ia) 2 μg/mL + prothioconazole 1.0 μg/mL,26.91
same,Fold Change in Growth Inhibition,B. cinerea; Lam 261 (Ia) 2 μg/mL + tebuconazole 0.00018 μg/mL,21.61
same,Fold Change in Growth Inhibition,B. cinerea; Lam 261 (Ia) 2 μg/mL + tebuconazole 0.00075 μg/mL,9.79
same,Fold Change in Growth Inhibition,"B. cinerea; Lam 261 (Ia) 2 μg/mL, benomyl 0 μg/mL (adjuvant alone)",1.00
same,Fold Change in Growth Inhibition,"B. cinerea; Lam 261 (Ia) 2 μg/mL, captan 0 μg/mL (adjuvant alone)",1.00
same,Fold Change in Growth Inhibition,"B. cinerea; Lam 261 (Ia) 2 μg/mL, dimethomorph 0 μg/mL (adjuvant alone)",1.00
same,Fold Change in Growth Inhibition,"B. cinerea; Lam 261 (Ia) 2 μg/mL, mancozeb 0 μg/mL (adjuvant alone)",1.00
same,Fold Change in Growth Inhibition,"B. cinerea; Lam 261 (Ia) 2 μg/mL, metalaxyl 0 μg/mL (adjuvant alone)",1.00
same,Fold Change in Growth Inhibition,"B. cinerea; Lam 261 (Ia) 2 μg/mL, prothioconazole 0 μg/mL (adjuvant alone)",1.00
same,Fold Change in Growth Inhibition,"B. cinerea; Lam 261 (Ia) 2 μg/mL, tebuconazole 0 μg/mL (adjuvant alone)",1.00
same,fold change improvement in fungal growth inhibition,Fusarium solani,1.63
same,fold change improvement in fungal growth inhibition,Fusarium oxysporum,1.63
same,fold change improvement in fungal growth inhibition,Alternaria infectorium; Ia 4 μg/mL + dimethomorph 0.2 μg/mL,1.25
same,fold change improvement in fungal growth inhibition,Alternaria infectorium; Ia 4 μg/mL + mancozeb 0.1 μg/mL,2.45
same,fold change improvement in fungal growth inhibition,Alternaria infectorium; Ia 4 μg/mL + prothioconazole 0.006 μg/mL,1.50
same,fold change improvement in fungal growth inhibition,Alternaria infectorium; [2],1.18
same,fold change improvement in fungal growth inhibition,Penicillium roqueforti; Ia 4 μg/mL + captan 0.04 μg/mL,1.17
same,fold change improvement in fungal growth inhibition,Penicillium roqueforti; Ia 4 μg/mL + dimethomorph 0.8 μg/mL,1.85
same,fold change improvement in fungal growth inhibition,Penicillium roqueforti; [3],1.65
same,fold change improvement in fungal growth inhibition,Penicillium roqueforti; [4],1.63
same,fold change improvement in fungal growth inhibition,Penicillium roqueforti; Ia 4 μg/mL + prothioconazole 0.00375 μg/mL,1.52
same,fold change improvement in fungal growth inhibition,Penicillium roqueforti; [2],1.27
same,fold change improvement in fungal growth inhibition,Penicillium roqueforti; Ia 4 μg/mL + pyrimethanil 0.02 μg/mL,1.31
same,fold change improvement in fungal growth inhibition,Aspergillus flavus; Ia 4 μg/mL + dimethomorph 12.8 μg/mL,1.27
same,fold change improvement in fungal growth inhibition,Aspergillus flavus; [3],1.72
same,fold change improvement in fungal growth inhibition,Aspergillus flavus; [4],2.01
same,fold change improvement in fungal growth inhibition,Aspergillus flavus; Ia 4 μg/mL + prothioconazole 0.012 μg/mL,1.28
same,fold change improvement in fungal growth inhibition,Cladosporium sp.,1.67
"C/C=C/[C@@H]1[C@H]2C[C@@H](C)CC[C@@H]2C(C)=C[C@H]1C(=O)c1c(O)c(-c2ccc(O)cc2)c[nH]c1=O [Ilicicolin H (A), ilicicolin H]",Fold Change in Growth Inhibition,[1]; adjuvant 1.56 μg/mL + pyraclostrobin 0.1 μg/mL,3.32
same,Fold Change in Growth Inhibition,[1]; adjuvant 1.56 μg/mL + pyraclostrobin 0.2 μg/mL,1.93
same,Fold Change in Growth Inhibition,[1]; adjuvant 1.56 μg/mL + pyraclostrobin 0.4 μg/mL,1.36
same,Fold Change in Growth Inhibition,[1]; adjuvant 1.56 μg/mL + pyraclostrobin 0.8 μg/mL,1.04
same,Fold Change in Growth Inhibition,[1]; adjuvant 3.13 μg/mL + pyraclostrobin 0.1 μg/mL,3.51
same,Fold Change in Growth Inhibition,[1]; adjuvant 3.13 μg/mL + pyraclostrobin 0.2 μg/mL,2.43
same,Fold Change in Growth Inhibition,[1]; adjuvant 3.13 μg/mL + pyraclostrobin 0.4 μg/mL,1.35
same,Fold Change in Growth Inhibition,[1]; adjuvant 3.13 μg/mL + pyraclostrobin 0.8 μg/mL,1.21
same,Fold Change in Growth Inhibition,[1]; adjuvant 6.25 μg/mL + pyraclostrobin 0.1 μg/mL,3.62
same,Fold Change in Growth Inhibition,[1]; adjuvant 6.25 μg/mL + pyraclostrobin 0.2 μg/mL,1.88
same,Fold Change in Growth Inhibition,[1]; adjuvant 6.25 μg/mL + pyraclostrobin 0.4 μg/mL,1.26
same,Fold Change in Growth Inhibition,[1]; adjuvant 6.25 μg/mL + pyraclostrobin 0.8 μg/mL,0.96
same,inherent fungicidal activity on their own,"[1]; adjuvant alone, at any of the concentrations tested",did not demonstrate any inherent fungicidal activity
